Measurements as given in patent publication US8247211B2, “Glycopeptide antibiotics” (American Cyanamid Company, priority 2001, dated 2012).

Assays:
Assay in all cases: In vitro antibacterial evaluation: minimum inhibitory concentration (MIC), broth dilution method
Type in all cases: cell-based
Staphylococcus sp. = conditions: broth dilution, 18 hours at 35° C.
Summary of the method: (§1)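 MIC by broth dilution in Mueller-Hinton II medium following NCCLS M7-A2. Inoculum was 5×10^5 CFU/mL and antibiotic was tested over 64-0.06 μg/mL. Gram-positive panel included clinical isolates resistant to methicillin, penicillin and/or vancomycin.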

Escherichia coli = conditions: for MIC Escherichia coli (ATCC 25922): strain ATCC 25922; for MIC Escherichia coli (GC 4559): strain GC 4559; for MIC Escherichi coli (GC 4560): strain GC 4560
Summary of the method: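 Inoculum: 5×10^5 CFU/mL. Range: 64-0.06 μg/mL. Medium: Muller-Hinton II […]; NCCLS M7-A2 broth dilution. Endpoint: lowest concentration inhibiting growth. Strains include methicillin-, penicillin- and/or vancomycin-resistant clinical isolates.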

Enterococcus sp. = conditions: for MIC Enterococcus faecalis (GC 2242): strain GC 2242; for MIC Enterococcus faecalis (GC 2691): strain GC 2691; for MIC Enterococcus faecalis (GC 3059): strain GC 3059
Summary of the method: as §1

Streptococcus sp. = conditions: for MIC Streptococcus pneumoniae (ATCC 6301): strain ATCC 6301; for MIC Streptococcus pneumoniae (GC 1894): strain GC 1894; for MIC Streptococcus pyogenes (GC 4563): strain GC 4563; for MIC Streptococcus agalactiae (GC 4564): strain GC 4564
Summary of the method: as §1

COc1cc(OC)cc(C2OCC3OC(OC4C(CO)OC(Oc5ccc(CC6NC(=O)C(C(C)c7ccccc7)NC(=O)CNC(=O)C(CO)NC(=O)C(C(O)C7CNC(=N)N7C7OC(CO)C(O)C(O)C7O)NC(=O)C(C(O)C7CNC(=N)N7)NC6=O)cc5)C(O)C4O)C(O)C(O)C3O2)c1 (stereo not drawn) [Example 150, Cyclo[glycyl-β-methylphenylalanyl-O-[4-O-[4,6-O-(3,5-dimethoxybenzylidene)hexopyranosyl]-hexopyranosyl]tyrosyl-3-(2-iminoimidazolidin-4-yl)seryl-3-(3-hexopyranosyl-2-iminoimidazolidin-4-yl)serylseryl]]
0.5 µg/mL: MIC Streptococcus pyogenes (GC 4563) (Streptococcus sp.)
0.25 µg/mL: MIC Streptococcus pneumoniae (ATCC 6301) (Streptococcus sp.) | MIC Streptococcus pneumoniae (GC 4565) (Streptococcus sp.; strain GC 4565)
2 µg/mL: MIC Coagulase Negative Staphylococcus (GC 4547) (Staphylococcus sp.; 5×10^5 CFU/mL) | MIC Coagulase Negative Staphylococcus (GC 4551) (Staphylococcus sp.; 5×10^5 CFU/mL) | MIC Staphylococcus aureus (ATCC 29213) (Staphylococcus sp.; 5×10^5 CFU/mL) | MIC Staphylococcus aureus (GC 3051) (Staphylococcus sp.; 5×10^5 CFU/mL) | MIC Staphylococcus aureus (GC 4541) (Staphylococcus sp.; 5×10^5 CFU/mL) | MIC Staphylococcus aureus (GC 4542) (Staphylococcus sp.; 5×10^5 CFU/mL) | MIC Staphylococcus aureus (GC 4544) (Staphylococcus sp.; 5×10^5 CFU/mL) | MIC Staphylococcus aureus (GC 4545) (Staphylococcus sp.; 5×10^5 CFU/mL) | MIC Staphylococcus aureus-SMITH (GC 4543) (Staphylococcus sp.; 5×10^5 CFU/mL) | MIC Staphylococcus aureus (ATCC 29213) (Staphylococcus sp.; strain ATCC 29213) | MIC Staphylococcus aureus (GC 3051) (Staphylococcus sp.; strain GC 3051) | MIC Staphylococcus aureus (GC 4541) (Staphylococcus sp.; strain GC 4541) | MIC Staphylococcus aureus (GC 4542) (Staphylococcus sp.; strain GC 4542) | MIC Staphylococcus aureus-SMITH (GC 4543) (Staphylococcus sp.; strain GC 4543) | MIC Staphylococcus aureus (GC 4544) (Staphylococcus sp.; strain GC 4544) | MIC Staphylococcus aureus (GC 4545) (Staphylococcus sp.; strain GC 4545) | MIC Coagulase Negative Staphylococcus (GC 4547) (Staphylococcus sp.; strain GC 4547) | MIC Coagulase Negative Staphylococcus (GC 4551) (Staphylococcus sp.; strain GC 4551)
32 µg/mL: MIC Escherichia coli (GC 4559) (Escherichia coli)
1 µg/mL: MIC Coagulase Negative Staphylococcus (GC 4548) (Staphylococcus sp.; 5×10^5 CFU/mL) | MIC Coagulase Negative Staphylococcus (GC 4549) (Staphylococcus sp.; 5×10^5 CFU/mL) | MIC Coagulase Negative Staphylococcus (GC 6257) (Staphylococcus sp.; 5×10^5 CFU/mL) | MIC Staphylococcus haemolyticus (GC 4546) (Staphylococcus sp.; 5×10^5 CFU/mL) | MIC Staphylococcus haemolyticus (GC 4546) (Staphylococcus sp.; strain GC 4546) | MIC Coagulase Negative Staphylococcus (GC 4548) (Staphylococcus sp.; strain GC 4548) | MIC Coagulase Negative Staphylococcus (GC 4549) (Staphylococcus sp.; strain GC 4549) | MIC Coagulase Negative Staphylococcus (GC 6257) (Staphylococcus sp.; strain GC 6257) | MIC Escherichi coli (GC 4560) (Escherichia coli) | MIC Streptococcus agalactiae (GC 4564) (Streptococcus sp.)
>64 µg/mL: MIC Escherichia coli (ATCC 25922) (Escherichia coli)
0.12 µg/mL: MIC Streptococcus pneumoniae (GC 1894) (Streptococcus sp.)
4 µg/mL: MIC Staphylococcus aureus (GC 1131) (Staphylococcus sp.; 5×10^5 CFU/mL) | MIC Staphylococcus aureus (GC 1131) (Staphylococcus sp.; strain GC 1131) | MIC Enterococcus faecalis (GC 2242) (Enterococcus sp.) | MIC Enterococcus faecalis (GC 2691) (Enterococcus sp.) | MIC Enterococcus faecium (GC 4557) (Enterococcus sp.; strain GC 4557)
8 µg/mL: MIC Staphylococcus aureus (GC 3053) (Staphylococcus sp.; 5×10^5 CFU/mL) | MIC Staphylococcus aureus (GC 3053) (Staphylococcus sp.; strain GC 3053) | MIC Enterococcus faecalis (ATCC 29212) (Enterococcus sp.; strain ATCC 29212) | MIC Enterococcus faecium (GC 2243) (Enterococcus sp.; strain GC 2243) | MIC Enterococcus faecalis (GC 3059) (Enterococcus sp.) | MIC Enterococcus faecalis (GC 4552) (Enterococcus sp.; strain GC 4552) | MIC Enterococcus faecalis (GC 4553) (Enterococcus sp.; strain GC 4553) | MIC Enterococcus faecalis (GC 4554) (Enterococcus sp.; strain GC 4554) | MIC Enterococcus faecium (GC 4556) (Enterococcus sp.; strain GC 4556) | MIC Enterococcus avium (GC 4558) (Enterococcus sp.; strain GC 4558) | MIC Enterococcus faecalis (GC 6189) (Enterococcus sp.; strain GC 6189)

CC(c1ccccc1)C1NC(=O)CNC(=O)C(CO)NC(=O)C(C(O)C2CNC(=N)N2C2OC(CO)C(O)C(O)C2O)NC(=O)C(C(O)C2CNC(=NC(=O)C(C)(C)C)N2)NC(=O)C(Cc2ccc(OC3OC(CO)C(OC4OC(CO)C(O)C(O)C4O)C(O)C3O)cc2)NC1=O (stereo not drawn) [Example 155, Cyclo[glycyl-β-methylphenylalanyl-O-(4-O-hexopyranosylhexopyranosyl)tyrosyl-3-[2-[(2,2-dimethylpropanoyl)imino]imidazolidin-4-yl]seryl-3-(3-hexopyranosyl-2-iminoimidazolidin-4-yl)serylseryl]]
<0.5 µg/mL: MIC Coagulase Negative Staphylococcus (ID-3941) (Staphylococcus sp.; 5×10^5 CFU/mL) | MIC Coagulase Negative Staphylococcus (ID-3941) (Staphylococcus sp.; strain ID-3941) | MIC Streptococcus pyogenes (ID-3187) (Streptococcus sp.; strain ID-3187)
0.5 to 1 µg/mL: MIC Staphylococcus aureus (GC 4545) (Staphylococcus sp.; 5×10^5 CFU/mL) | MIC Staphylococcus aureus (GC 4545) (Staphylococcus sp.; strain GC 4545) | MIC Enterococcus avium (GC 4558) (Enterococcus sp.; Enterococcus avium (GC 4558), broth dilution, 18 hours at 35° C.) | MIC Enterococcus faecalis (ATCC 29212) (Enterococcus sp.; Enterococcus faecalis (ATCC 29212), broth dilution, 18 hours at 35° C.) | MIC Enterococcus faecalis (GC 4554) (Enterococcus sp.; Enterococcus faecalis (GC 4554), broth dilution, 18 hours at 35° C.) | MIC Enterococcus faecalis (ATCC 29212) (Enterococcus sp.; strain ATCC 29212) | MIC Enterococcus faecalis (GC 2242) (Enterococcus sp.) | MIC Enterococcus faecalis (GC 4554) (Enterococcus sp.; strain GC 4554) | MIC Enterococcus avium (GC 4558) (Enterococcus sp.; strain GC 4558)
>0.12 µg/mL: MIC Streptococcus pyogenes (GC 4563) (Streptococcus sp.)
<0.12 µg/mL: MIC Streptococcus agalactiae (GC 4564) (Streptococcus sp.)
1 to 2 µg/mL: MIC Enterococcus faecium (GC 4556) (Enterococcus sp.; Enterococcus faecium (GC 4556), broth dilution, 18 hours at 35° C.) | MIC Enterococcus faecium (GC 4557) (Enterococcus sp.; Enterococcus faecium (GC 4557), broth dilution, 18 hours at 35° C.) | MIC Enterococcus faecium (GC 4556) (Enterococcus sp.; strain GC 4556) | MIC Enterococcus faecium (GC 4557) (Enterococcus sp.; strain GC 4557)
<0.5 to 1 µg/mL: MIC Coagulase Negative Staphylococcus (GC 4548) (Staphylococcus sp.; 5×10^5 CFU/mL) | MIC Coagulase Negative Staphylococcus (GC 4549) (Staphylococcus sp.; 5×10^5 CFU/mL) | MIC Coagulase Negative Staphylococcus (GC 4551) (Staphylococcus sp.; 5×10^5 CFU/mL) | MIC Staphylococcus haemolyticus (GC 4546) (Staphylococcus sp.; 5×10^5 CFU/mL) | MIC Staphylococcus haemolyticus (GC 4546) (Staphylococcus sp.; strain GC 4546) | MIC Coagulase Negative Staphylococcus (GC 4548) (Staphylococcus sp.; strain GC 4548) | MIC Coagulase Negative Staphylococcus (GC 4549) (Staphylococcus sp.; strain GC 4549) | MIC Coagulase Negative Staphylococcus (GC 4551) (Staphylococcus sp.; strain GC 4551) | MIC Enterococcus faecium (GC 2243) (Enterococcus sp.; Enterococcus faecium (GC 2243), broth dilution, 18 hours at 35° C.) | MIC Enterococcus faecium (GC 2243) (Enterococcus sp.; strain GC 2243)
<0.5 to 2 µg/mL: MIC Coagulase Negative Staphylococcus (GC 4547) (Staphylococcus sp.; 5×10^5 CFU/mL) | MIC Coagulase Negative Staphylococcus (GC 4547) (Staphylococcus sp.; strain GC 4547)
>64 µg/mL: MIC Escherichia coli (ATCC 25922) (Escherichia coli) | MIC Escherichia coli (GC 4559) (Escherichia coli)
1 µg/mL: MIC Coagulase Negative Staphylococcus (GC 6257) (Staphylococcus sp.; 5×10^5 CFU/mL) | MIC Coagulase Negative Staphylococcus (GC 6257) (Staphylococcus sp.; strain GC 6257)
0.5 to 2 µg/mL: MIC Escherichi coli (GC 4560) (Escherichia coli)
0.5 µg/mL: MIC Staphylococcus aureus (GC 3051) (Staphylococcus sp.; 5×10^5 CFU/mL) | MIC Staphylococcus aureus (GC 3053) (Staphylococcus sp.; 5×10^5 CFU/mL) | MIC Staphylococcus aureus (GC 3051) (Staphylococcus sp.; strain GC 3051) | MIC Staphylococcus aureus (GC 3053) (Staphylococcus sp.; strain GC 3053) | MIC Enterococcus faecalis (GC 6189) (Enterococcus sp.; Enterococcus faecalis (GC 6189), broth dilution, 18 hours at 35° C.) | MIC Enterococcus faecalis (GC 2691) (Enterococcus sp.) | MIC Enterococcus faecalis (GC 3059) (Enterococcus sp.) | MIC Enterococcus faecalis (GC 6189) (Enterococcus sp.; strain GC 6189)
0.12 µg/mL: MIC Streptococcus pneumoniae (ATCC 6301) (Streptococcus sp.) | MIC Streptococcus pneumoniae (GC 1894) (Streptococcus sp.)
